Where a SMILES comes first, the peptide text is derived from it. Where no end group is shown, it is not given here. The star is where a group is joined. Biotin = O=C1N[C@H]2[C@H](CS[C@H]2CCCCC(=O)*)N1
Experiments:
NIH 3T3 cells [1] = experiment: PTD-β-galactosidase transduction into NIH 3T3 cells (lysate absorbance at 405 nm); type: cell-based; details: general statement in description
Description: N-terminally biotinylated direct and inverted isomers were compared to determine the transduction efficiency of inverted isomers of PTDs. PTDs and β-galactosidase were complexed together with a streptavidin-biotin bridge. NIH 3T3 cells were seeded into a 96-well plate and incubated as described above. The PTD-β-galactosidase complexes were formed (as described in Example 1) and added to a final concentration of 12.5 nM. […] The lysis reaction was stopped and the absorbance at 405 nm was measured. The transduction activity of inverted isomers is stronger than the transduction activity of direct PTDs.
The activities of 2 PTDs were compared to determine if the introduction of a lysine residue juxtaposed to the biotin moiety affects transduction activity. The pairs of peptides differed by a glycine to lysine substitution within the biotin peptide linker. PTDs and β-galactosidase were complexed together with a streptavidin-biotin bridge. NIH 3T3 cells were seeded as described above. […] The lysis reaction was stopped, and the absorbance at 405 nm was measured. The presence of a lysine residue juxtaposed to the biotin caused about a two-fold enhancement in transduction activity.
To further study the role of the lysine residue located in the biotin linker, the indirect PTDs and the direct PTDs with a lysine residue in the linker were compared. […]

NIH 3T3 cells [2] = details: PTD without cargo moiety, 0-1000 nM (nanomolar range), 48 hours
Description: PTDs (SEQ ID NOS:7 and 10), in the absence of a cargo moiety, were added to NIH 3T3 cultures at final concentrations ranging from 0-1000 nM to determine if the PTDs were cytotoxic. NIH 3T3 cells were seeded and incubated overnight, and the peptides were added to the cultures. The cells were incubated for 48 hours, and cell viability was determined using an Alamar blue assay.

human dermal fibroblasts = experiment: Histochemical staining for β-galactosidase in cells transduced with PTD complex; type: cell-based; details: 50 nM complex with streptavidin-β-galactosidase, 1 hour at 37° C., light microscopy
Description: To determine the efficiency of transduction based on the percentage of cells that receive the reporter protein, cells were assayed by histochemical staining for the reporter protein.
HUVEC and human dermal fibroblast cells were each seeded at 40,000 per well of a 24-well plate and incubated overnight. PTD complexes (SEQ ID NO:7-streptavidin-β-galactosidase or SEQ ID NO:6-streptavidin-β-galactosidase) were added to the wells at a final concentration of 50 nM and incubated for 1 hour at 37° C. The cells were washed 3 times in PBS, fixed, and stained for β-galactosidase using a β-galactosidase staining set (Roche) according to the manufacturer's instructions. Following development of β-galactosidase activity, the cells were washed with PBS and visualized by light microscopy.

[3] = Mi et al., Mol. Ther., 2:339-347, 2000; cited from earlier work
293 HEK cells = experiment: PTD-mediated transport of streptavidin-β-galactosidase into 293 HEK cells (lysate absorbance at 405 nm); type: cell-based; details: 50 nM complex with streptavidin-β-galactosidase, 30 minutes at 37° C.
Description: To determine the effect of biotin location on transduction efficiency, biotin was added to either the amino terminus or the carboxy terminus of three PTDs. A (Gly)3 linker was added to the amino terminus for N-terminal biotinylated peptides. For C-terminal biotinylation, the last glycine in the C-terminal linker was replaced by lysine. The side chain of lysine was used for the attachment of the biotin group. A peptide with negligible transduction activity (Mi et al., Mol. Ther., 2:339-347, 2000) (SEQ ID NO:6) was used as a negative control. PTDs and β-galactosidase were complexed together with a streptavidin-biotin bridge.
To test for transduction efficiency, 293 HEK cells were seeded into a 96-well plate at approximately 4500 cells/well and incubated overnight. To prepare peptide complexes, equimolar concentrations of biotinylated PTD and streptavidin-crosslinked β-galactosidase were mixed and diluted in cell culture medium. The mixtures were incubated for 30 minutes at 37° C. to allow formation of complexes. Each complex was added to a final concentration of 50 nM and incubated for 30 minutes at 37° C. To assay for β-galactosidase activity, the cells were washed 3 times with PBS and were lysed with 100 μl of assay reagent (Pierce). […] The absorbance at 405 nm was measured on a Wallac Victor spectroluminometer.

NIH 3T3 cells [4] = details: 20 nM complex with streptavidin-linked β-galactosidase, 1 hour at 37° C.
Description: To determine the intracellular location of the complex, cells were immunostained for streptavidin. NIH 3T3 cells were seeded into 24-well tissue culture plates and incubated overnight. The cells were treated with 20 nM PTD-cargo moiety complex comprising the polypeptide sequence shown in SEQ ID NO:14 and streptavidin-linked β-galactosidase for 1 hour at 37° C. The cells were washed 3 times with PBS, and non-specific binding was blocked by a 30 minute incubation with normal goat serum at room temperature. Mouse anti-streptavidin monoclonal antibody (Monosan, Catalog No. 5043) was diluted to 1 μg/ml with PBS containing 20% normal goat serum. The diluted monoclonal antibody was added to the cells, and the cells were incubated for 1 hour at room temperature.
The cells were washed 3 times with PBS and a secondary Alexa Fluor 568 conjugated goat anti-mouse IgG (Molecular Probes, Catalog No. A-11019) was diluted 1:200 in PBS with 20% normal goat serum. Following a 30 minute incubation at room temperature, the cells were washed 3 times with PBS and visualized by fluorescent microscopy.

NIH 3T3 cells [5] = details: 20 nM complex with streptavidin-β-galactosidase, 1 hour at 37° C.
Description: The transport activities of PTDs were compared to determine if introduction of a nuclear localization signal affect translocation of a PTD-cargo moiety complex. The cargo moiety was streptavidin-linked β-galactosidase. The cargo moiety was streptavidin-linked β-galactosidase. The peptides differed by the position of the nuclear localization signal. The nuclear localization signal was located on the amino terminus (down-stream of a lysine linker) or the carboxy terminus. NIH 3T3 cells were seeded as described above. Each PTD complex was added to a final concentration of 20 nM, and the cells were incubated for 1 hour at 37° C. Following incubation, the cells were washed 3 times in PBS and assayed for nuclear localization of β-galactosidase. β-galactosidase activity was measured at 405 nm in a colorimetric assay.
Peptides containing two nuclear localization signals were tested to study the role of the multiple nuclear localization signals on peptide transport. NIH 3T3 cells were seeded as described above. A PTD-β-galactosidase complex was added to a final concentration of 20 nM, and the cells were incubated for 1 hour at 37° C. Following incubation, the cells were washed 3 times in PBS and assayed for nuclear localization of β-galactosidase.

plasma membrane = details: Wender et al., Proc. Natl. Acad. Sci USA 97:13003-13008, 2000; cited from earlier work

In the case of RKMLKSTRRQRR [SEQ ID NO:1], the “ability to function as a PTD relative to tat (SEQ ID NO:24) and WO 01/15511 peptide (SEQ ID NO:25)” value (NIH 3T3 cells [1]) is reported as “more efficiently”.

For CSCC[C@H](NC(=O)[C@H](CC(C)C)NC(=O)[C@H](CCCCN)NC(=O)[C@H](CO)NC(=O)[C@@H](NC(=O)[C@H](CCCNC(=N)N)NC(=O)[C@H](CCCNC(=N)N)NC(=O)[C@H](CCC(N)=O)NC(=O)[C@H](CCCNC(=N)N)NC(=O)[C@@H](N)CCCNC(=N)N)[C@@H](C)O)C(=O)N[C@@H](CCCCN)C(=O)N[C@@H](CCCNC(=N)N)C(=O)NCC(=O)NCC(=O)N[C@@H](CCCCNC(=O)CCCC[C@@H]1SC[C@@H]2NC(=O)N[C@@H]21)C(=O)O [SEQ ID NO:11, Arg-Arg-Gln-Arg-Arg-Thr-Ser-Lys-Leu-Met-Lys-Arg-Gly-Gly-Lys-Biotin] (H-RRQRRTSKLMKRGGK(Biotin)-OH), the “effect on cell growth / cell viability” value (NIH 3T3 cells [2]) was “did not inhibit cell growth”.

For N=C(N)NCCC[C@H](NC(=O)CNC(=O)[C@@H](N)Cc1ccc(O)cc1)C(=O)N[C@@H](CCCCN)C(=O)N[C@@H](CCCCN)C(=O)N[C@@H](CCCNC(=N)N)C(=O)N[C@@H](CCCNC(=N)N)C(=O)N[C@@H](CCC(N)=O)C(=O)N[C@@H](CCCNC(=N)N)C(=O)N[C@@H](CCCNC(=N)N)C(=O)N[C@@H](CCCNC(=N)N)C(=O)NCC(=O)NCC(=O)N[C@@H](CCCCNC(=O)CCCC[C@@H]1SC[C@@H]2NC(=O)N[C@@H]21)C(=O)O [SEQ ID NO:8, Tyr-Gly-Arg-Lys-Lys-Arg-Arg-Gln-Arg-Arg-Arg-Gly-Gly-Lys-Biotin], the “effect on cell growth / cell viability” value (NIH 3T3 cells [2]) was “did not inhibit cell growth”.

With “Biotin-Gly-Gly-Gly-Tyr-Gly-Arg-Lys-Lys-Arg-Arg-Gln-Arg-Arg-Arg [SEQ ID NO:7]” the “β-galactosidase reporter protein staining of cells” value (human dermal fibroblasts) was “positive”.

In the case of Biotin-GGARPLEHGSDKAT [SEQ ID NO:6], the transduction activity [3] is listed as “negligible”.

For Biotin-GGGYARAAARQARA [SEQ ID NO:9], the “function as a PTD (amount of β-galactosidase in the cell lysate vs negative control SEQ ID NO:6)” value (293 HEK cells) was “did not function as a PTD”.

With Biotin-KGGRKMLKSTRRQRR [SEQ ID NO:14] the “intracellular location of the complex” value (NIH 3T3 cells [4]) was “localized to the cytoplasm”.

For “Biotin-KGGRKMLKSTRRQRRKKKRKV [SEQ ID NO:19]”, the “translocation of the complex, effect of nuclear localization signal and its position” value (NIH 3T3 cells [5]) was “functioned much better”.

In the case of “SEQ ID NO:23: a reverse isomer of a tat-derived peptide (reverse tat), Wender et al. (RRRQRRKKRGY; Human immunodeficiency virus)”, the “efficiency of crossing the plasma membrane relative to tat (SEQ ID NO:24)” value (plasma membrane) is given as “about three times”.
